From publication PMC9865139 (Viruses, 2022)
Read-outs that look alike come from different tables or passages of the source.

What was measured:
[1] = system: vaccinia virus (strain Copenhagen); experiment: microbe, parasite or virus in culture; format: cell-based
[2] = system: Vero cell culture; details: African green monkey
[3] = system: cowpox virus (strain Grishak), CPXV; experiment: microbe, parasite or virus in culture; details: Vero, read-out: IC50 CPXV
[4] = system: mousepox virus—ectromelia (strain K-1), ECTV
[5] = system: cowpox virus (strain Grishak), CPXV
[6] = system: mousepox virus—ectromelia (strain K-1), ECTV; experiment: microbe, parasite or virus in culture; details: Vero, read-out: IC50 ECTV
[7] = system: vaccinia virus; details: cited from earlier work
[8] = system: ectromelia virus; details: mouse, in vivo; cited from earlier work
[9] = in vivo; cited from earlier work
[10] = in vivo; cited from earlier work; remark: listed apart in the source
[11] = system: VARV; details: monkey, in vivo; cited from earlier work
[12] = system: cowpox virus; details: cited from earlier work
[13] = system: orthopoxviruses; details: cited from earlier work
[14] = Orthopoxvirus vaccinia, Vero, read-out: IC50, 50% virus-inhibiting concentration
[15] = Orthopoxvirus vaccinia, Vero, read-out: pIC50 (converted)

Structure (SMILES)	SI, selectivity index (TC50/IC50) [1]	IC50 [1, 14] [nM]	IC50 [1, 15] [nM]	TC50, 50% cytotoxic concentration [2] [nM]	further results
O=C(NC12CC3CC(CC(C3)C1)C2)c1ccccc1 [12a]	23	4700 ± 370	4680	105670 ± 19140	–
O=C(NC1C2CC3CC(C2)CC1C3)c1ccccc1 (stereo not shown) [12b]	15	6730 ± 170	6760	101330 ± 6110	–
O=C(NC12CC3CC(CC(C3)C1)C2)c1ccc(F)cc1 [13a]	847	410 ± 100	407	347310 ± 38980	IC50 [3]: 2780 ± 420 nM; SI ECTV (TC50/IC50) [4]: 250; SI CPXV (TC50/IC50) [5]: 125; IC50 [6]: 1390 ± 290 nM
O=C(NC1C2CC3CC(C2)CC1C3)c1ccc(F)cc1 (stereo not shown) [13b]	49	2140 ± 130	2140	104000 ± 8720	–
O=C(NC12CC3CC(CC(C3)C1)C2)c1ccc(Cl)cc1 [14a]	2662	130 ± 80	135	346000 ± 66000	IC50 [3]: 530 ± 370 nM; SI ECTV (TC50/IC50) [4]: 935; SI CPXV (TC50/IC50) [5]: 653; IC50 [6]: 370 ± 330 nM
O=C(NC1C2CC3CC(C2)CC1C3)c1ccc(Cl)cc1 (stereo not shown) [14b]	578	180 ± 40	182	104000 ± 8720	–
O=C(NC12CC3CC(CC(C3)C1)C2)c1ccc(Br)cc1 [15a]	3192	130 ± 80	129	415000 ± 95000	IC50 [3]: 400 ± 240 nM; SI ECTV (TC50/IC50) [4]: 2767; SI CPXV (TC50/IC50) [5]: 1038; IC50 [6]: 150 ± 80 nM
O=C(NC1C2CC3CC(C2)CC1C3)c1ccc(Br)cc1 (stereo not shown) [15b]	589	220 ± 70	219	–	IC50 ([7]; read-out: IC50): 3060 nM
O=C(NC12CC3CC(CC(C3)C1)C2)c1ccccc1[N+](=O)[O-] [16a, N-(adamantan-1-yl)-2-nitrobenzamide]	–	–	–	>100000	–
O=C(NC1C2CC3CC(C2)CC1C3)c1ccccc1[N+](=O)[O-] (stereo not shown) [16b, N-(adamantan-2-yl)-2-nitrobenzamide]	–	–	–	>100000	–
O=C(NC12CC3CC(CC(C3)C1)C2)c1cccc([N+](=O)[O-])c1 [17a, N-(adamantan-1-yl)-3-nitrobenzamide]	8	950 ± 30	955	7750 ± 750	–
O=C(NC1C2CC3CC(C2)CC1C3)c1cccc([N+](=O)[O-])c1 (stereo not shown) [17b, N-(adamantan-2-yl)-3-nitrobenzamide]	10	990 ± 190	1000	9500 ± 870	–
O=C(NC12CC3CC(CC(C3)C1)C2)c1ccc([N+](=O)[O-])cc1 [18a]	18,214	30 ± 10	30.2	546430 ± 23980	IC50 [3]: 180 ± 20 nM; SI ECTV (TC50/IC50) [4]: 6071; SI CPXV (TC50/IC50) [5]: 3036; IC50 [6]: 90 ± 17 nM
O=C(NC1C2CC3CC(C2)CC1C3)c1ccc([N+](=O)[O-])cc1 (stereo not shown) [18b, N-(adamantan-2-yl)-4-nitrobenzamide]	12,300	40 ± 10	39.8	492000 ± 31000	IC50 [3]: 1100 ± 220 nM; SI ECTV (TC50/IC50) [4]: 1093; SI CPXV (TC50/IC50) [5]: 447; IC50 [6]: 450 ± 220 nM
CCCCCCCCCCCCCCCCOCCCOP(=O)(O)CO[C@H](CO)Cn1ccc(N)nc1=O [CMX001, Brincidofovir]	–	–	–	–	protection against lethal infection with ectromelia virus [8]: does not provide a sufficient level of protection
Brc1ccc(NC2C3CC4CC(C3)CC2C4)cc1 (stereo not shown) [bromantane, reference compound]	2	38800	87100	–	IC50 ([1]; read-out: IC50, 50% virus-inhibiting concentration): 38900 ± 490 nM
Nc1ccn(C[C@@H](CO)OCP(=O)(O)O)c(=O)n1 [cidofovir, Cidofovir, reference compound]	26	7630 ± 3150	–	201330 ± 60100	IC50 [3]: 23500 ± 2230 nM; SI ECTV (TC50/IC50) [4]: 31; oral bioavailability [9]: Low; SI CPXV (TC50/IC50) [5]: 9; selectivity index (SI), vaccinia virus [7]: 12; nephrotoxicity [10]: significant; IC50 [6]: 6460 ± 3100 nM; efficacy when used after the onset of smallpox lesions [11]: ineffective
O=C(N/N=C1/C(=O)Nc2ccccc21)NC1C2CC3CC(C2)CC1C3 (stereo not shown) [compound 1]	–	–	–	–	reduction in vaccinia virus reproduction [7]: 42%
O=C(CNC1CCCCC1)NC12CC3CC(CC(C3)C1)C2 [compound 2]	–	–	–	–	vaccinia virus inhibitory effects [7]: pronounced
CC(=O)N(OCCN(C)C)C12CC3CC(CC(C3)C1)C2 [compound 3]	–	–	–	–	vaccinia virus inhibitory effects [7]: pronounced
CN(C)CCOCC(=O)NC12CC3CC(CC(C3)C1)C2 [compound 4, tromantadine]	–	–	–	–	vaccinia virus inhibitory effects [7]: pronounced
O=C1C2C3C=CC(C4CC34)C2C(=O)N1NC(=O)C12CC3CC(CC(C3)C1)C2 (stereo not shown) [compound 6]	–	–	–	–	effective concentration against vaccinia virus [7]: below 0.05 μM; effective concentration against cowpox virus [12]: below 0.05 μM
CC1(C)[C@H]2CC=C(CNC(=O)C34CC5CC(CC(C5)C3)C4)[C@@H]1C2 [compound 7]	–	–	–	–	selectivity index (SI), vaccinia virus [7]: 1123; selectivity index (SI), cowpox virus [12]: 406
O=C(NC12CC3CC(CC(C3)C1)C2)c1ccc(C(F)(F)F)cc1 [compound 10]	–	–	–	–	selectivity index [13]: 2325
CC1(C)C2CCC1(C)C(NC(=O)c1ccc([N+](=O)[O-])cc1)C2 (stereo not shown) [compound 11]	–	–	–	–	selectivity index [13]: 31,500
O=C(NN1C(=O)C2C3C=CC(C4CC34)C2C1=O)c1ccc(F)cc1 (stereo not shown) [compound 19]	–	–	–	–	IC50 ([7]; read-out: IC50 against vaccinia virus): < 50 nM
